# Assay: photoluminescence quantum yield (fraction); solvent given as SMILES
smiles,measurement,setting,value
COc1ccccc1,photoluminescence quantum yield,in C1CCCCC1,0.36
CCOC(=O)c1cc(C(=O)OCC)c2ccc(O)cc2n1,photoluminescence quantum yield,in CCO,0.007
C#Cc1ccc2ccc3oc(=O)cc(C)c3c2c1,photoluminescence quantum yield,in CCO,0.23
COC(=O)C(Cc1ccc2oc(-c3ccc(N(c4ccccc4)c4ccccc4)cc3)nc2c1)NC(=O)OC(C)(C)C (stereo unspecified),photoluminescence quantum yield,in C1CCCCC1,0.87
same,photoluminescence quantum yield,in C1CCOC1,0.77
same,photoluminescence quantum yield,in C1COCCO1,0.47
same,photoluminescence quantum yield,in CC1CCCCC1,0.94
same,photoluminescence quantum yield,in CC1COC(=O)O1,0.67
same,photoluminescence quantum yield,in CC#N,0.62
same,photoluminescence quantum yield,in CC(C)=O,0.68
same,photoluminescence quantum yield,in CC(C)O,0.77
same,photoluminescence quantum yield,in CC(O)CO,0.63
same,photoluminescence quantum yield,in CCCCCC,0.98
same,photoluminescence quantum yield,in CCCCCCCC,0.99
same,photoluminescence quantum yield,in CCCCCO,0.76
same,photoluminescence quantum yield,in CCCCO,0.87
same,photoluminescence quantum yield,in CCO,0.61
same,photoluminescence quantum yield,in CCOC(C)=O,0.8
same,photoluminescence quantum yield,in CN(C)C=O,0.72
same,photoluminescence quantum yield,in CO,0.42
same,photoluminescence quantum yield,in COCCOC,0.44
same,photoluminescence quantum yield,in CS(C)=O,0.69
same,photoluminescence quantum yield,in ClC(Cl)Cl,0.88
same,photoluminescence quantum yield,in ClCCl,0.87
same,photoluminescence quantum yield,in N#Cc1ccccc1,0.26
same,photoluminescence quantum yield,in NC=O,0.35
same,photoluminescence quantum yield,in O,0.003
same,photoluminescence quantum yield,in OCC(F)(F)F,0.05
CC(NC(=O)OC(C)(C)C)C(=O)OCc1ccc2c3cccc4cccc(c5cccc1c52)c43 (stereo unspecified),photoluminescence quantum yield,in CCO,0.88
COc1ccc(-c2cc3c(o2)=CC2=Cc4cc5oc(-c6ccc(OC)cc6)cc5n4[B-](F)(F)[N+]=32)cc1,photoluminescence quantum yield,in C1CCOC1,0.83
same,photoluminescence quantum yield,in CC#N,0.85
same,photoluminescence quantum yield,in CCO,0.77
same,photoluminescence quantum yield,in CO,0.77
same,photoluminescence quantum yield,in Cc1ccccc1,0.87
same,photoluminescence quantum yield,in ClC(Cl)Cl,0.86
COc1cc(/C=C/c2ccccc2)cc(OC)c1,photoluminescence quantum yield,in C1CCCCC1,0.18
same,photoluminescence quantum yield,in CC#N,0.32
same,photoluminescence quantum yield,in CC(C)O,0.27
same,photoluminescence quantum yield,in CCCCOCCCC,0.26
same,photoluminescence quantum yield,in CCOC(C)=O,0.29
same,photoluminescence quantum yield,in CCOCC,0.27
Cn1c(=O)cc(C(=O)c2ccccc2)c2sc(-c3ccc(OC(F)(F)F)cc3)cc21,photoluminescence quantum yield,in CC#N,0.65
same,photoluminescence quantum yield,in ClCCl,0.85
CC(=O)c1nc(-c2ccc(N(C)C)cc2)oc1C,photoluminescence quantum yield,in CC#N,0.029
same,photoluminescence quantum yield,in CCO,0.019
same,photoluminescence quantum yield,in CCOC(C)=O,0.03
same,photoluminescence quantum yield,in CCOCC,0.016
same,photoluminescence quantum yield,in ClCCl,0.044
Cc1cc2c3ccccc3n(C)c2c2c1c1ccccc1n2C,photoluminescence quantum yield,in ClCCl,0.114
CCN(CC)c1ccc(-c2cc3c(s2)c(C(=O)OC)cc(=O)n3C)cc1,photoluminescence quantum yield,in C1CCOC1,0.97
same,photoluminescence quantum yield,in CC#N,0.08
same,photoluminescence quantum yield,in CCO,0.04
same,photoluminescence quantum yield,in CN(C)C=O,0.16
same,photoluminescence quantum yield,in CS(C)=O,0.1
same,photoluminescence quantum yield,in Cc1ccccc1,0.98
same,photoluminescence quantum yield,in ClC(Cl)Cl,0.99
same,photoluminescence quantum yield,in ClCCl,0.91
CCC1(CC)c2ccccc2-c2ccc(C#Cc3ccc4ccc5cccc6ccc3c4c56)cc21,photoluminescence quantum yield,in Cc1ccccc1,0.99
CN(C)c1ccc(C2=[N+]3C(=Nc4c5ccccc5c(-c5ccc(N(C)C)cc5)n4[B-]3(F)F)c3ccccc32)cc1,photoluminescence quantum yield,in ClCCl,0.01
c1ccc(N(c2ccccc2)c2c3ccccc3cc3ccccc23)cc1,photoluminescence quantum yield,in Cc1ccccc1,0.92
CSc1ccc(C#Cc2ccc(C#Cc3ccc(C#Cc4ccccc4C#N)cc3C#N)cc2C#N)cc1,photoluminescence quantum yield,in ClC(Cl)Cl,0.972
c1ccc(-c2cc(-c3ccc4ccc5c(-c6ccnc(-c7ccccn7)c6)ccc6ccc3c4c65)ccn2)nc1,photoluminescence quantum yield,in C1CCOC1,0.65
same,photoluminescence quantum yield,in CC#N,0.56
same,photoluminescence quantum yield,in CCC#N,0.56
same,photoluminescence quantum yield,in CCCC#N,0.58
same,photoluminescence quantum yield,in CCCCCC,0.6
same,photoluminescence quantum yield,in CCCO,0.38
same,photoluminescence quantum yield,in CCO,0.39
same,photoluminescence quantum yield,in CO,0.27
same,photoluminescence quantum yield,in Cc1ccccc1,0.56
CN1/C(=C\C=C\C2=C3C=CC(c4ccccc4)=[N+]3[B-](F)(F)n3c2ccc3-c2ccccc2)Sc2ccccc21,photoluminescence quantum yield,in CC#N,0.1
CCC1=C(C)C(=O)n2c1cc1c(c(C)c(C(=O)OCC(C)C)n1CC(C)C)c2=O,photoluminescence quantum yield,in C1CCCCC1,0.05
same,photoluminescence quantum yield,in CO,0.74
same,photoluminescence quantum yield,in CS(C)=O,0.84
same,photoluminescence quantum yield,in ClC(Cl)Cl,0.78
same,photoluminescence quantum yield,in c1ccccc1,0.22

# Source: the Deep4Chem optical property database
